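Protocol summary: plate cells (96-well), add compound at 5 concentrations, incubate 48 h, interpolate endpoints linearly. Abbreviation: GI50, concentration required for 50% inhibition of growth.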 The source made the active and inactive calls. No stated cut-off is given here; in the data, active = GI50 up to about 1.1 µM and inactive = higher.

Test systems include EKVX; OVCAR-4; MDA-N; MDA-MB-231; SK-MEL-5; SNB-19; OVCAR-5; CCRF-CEM; SK-MEL-2; T47D; UO-31; SK-MEL-28; COLO 205; NCI-H226; UACC-257; NCI/ADR-RES; SN12C; PC-3; BT-549; SW-620.
Common to all, as to assay: inhibition of tumour cell growth, NCI panel, 48 h

With `COCc1nc2c(OC)c(-c3nc4ccc(N5CCN(C)CC5)cc4[nH]3)cc(OC)c2[nH]1`, the GI50 in the test on EKVX was 99.8 µM (inactive); with OVCAR-4 it was 59.2 µM (inactive); in the test on MDA-N, 33.1 µM (inactive); with MDA-MB-231, 30.2 µM (inactive); in the test on SK-MEL-5, 22.2 µM (inactive); with SNB-19, 48.8 µM (inactive). The GI50 with OVCAR-5 was > 100 µM (inactive); in the test with CCRF-CEM, 27.5 µM (inactive); with SK-MEL-2 it was 27.9 µM (inactive); in the test on T47D, 65.2 µM (inactive); in the test on UO-31, 31.2 µM (inactive); in the test with SK-MEL-28, > 100 µM (inactive). Besides, the GI50 in the test with COLO 205 is 25.6 µM (inactive); in the test with NCI-H226, > 100 µM (inactive); in the test with UACC-257, 17.7 µM (inactive); in the test with NCI/ADR-RES it was > 100 µM (inactive); with SN12C, 43.9 µM (inactive); with PC-3, 42.9 µM (inactive). Besides, the GI50 is > 100 µM (inactive) in the test on BT-549 and 40.6 µM (inactive) with SW-620.
Take `C/C(=N\C1CCCCC1)c1ccccc1O`: the GI50 with EKVX, in the test with OVCAR-4, in the test with MDA-N, in the test on MDA-MB-231, with SK-MEL-5 and with SNB-19 was > 100 µM (inactive) throughout. Moreover, the GI50 in the test with OVCAR-5 is > 100 µM (inactive); in the test with CCRF-CEM, 54 µM (inactive); in the test on SK-MEL-2, > 100 µM (inactive); with T47D, > 100 µM (inactive); in the test on UO-31, > 100 µM (inactive); in the test on SK-MEL-28, > 100 µM (inactive). In addition, the GI50 in the test on COLO 205, with NCI-H226, with UACC-257, in the test on NCI/ADR-RES, with SN12C and in the test with PC-3 was > 100 µM (inactive) throughout. Also, the GI50 with BT-549 and in the test with SW-620 was > 100 µM (inactive) in each case.
As for `Cc1nnc2n1-c1ccccc1C(=S)N1CSCC21` (stereo not given), the GI50 in the test on EKVX, in the test on OVCAR-4, in the test with MDA-N, in the test on MDA-MB-231, in the test on SK-MEL-5 and in the test with SNB-19 was > 100 µM (inactive) in each case. Moreover, the GI50 with OVCAR-5, in the test with CCRF-CEM, with SK-MEL-2, in the test with T47D, in the test with UO-31 and in the test on SK-MEL-28 was > 100 µM (inactive) throughout. The GI50 in the test on COLO 205, in the test on NCI-H226, with UACC-257, in the test on NCI/ADR-RES, in the test with SN12C and with PC-3 was > 100 µM (inactive) each time. Moreover, the GI50 in the test with BT-549 and with SW-620 was > 100 µM (inactive) each time.
For the compound `CSc1n[nH]c2[nH]nc(C)c12`, the GI50 with EKVX, in the test on OVCAR-4, in the test with MDA-N, in the test on MDA-MB-231, in the test with SK-MEL-5 and in the test with SNB-19 was > 100 µM (inactive) throughout. Moreover, the GI50 in the test on OVCAR-5, in the test with CCRF-CEM, in the test on SK-MEL-2, in the test on T47D, in the test on UO-31 and in the test with SK-MEL-28 was > 100 µM (inactive) in each case. The GI50 in the test with COLO 205, in the test with NCI-H226, with UACC-257, with NCI/ADR-RES, in the test with SN12C and in the test on PC-3 was > 100 µM (inactive) in each case. The GI50 in the test on BT-549 and with SW-620 was > 100 µM (inactive) throughout.
Turning to `COc1ccc2nc3c([N+](=O)[O-])ccc4c3c(c2c1)N=CN4CCN(C)C`, the GI50 with EKVX was 4.65 µM (inactive); in the test on OVCAR-4, 9.02 µM (inactive); in the test on MDA-N it was 4.71 µM (inactive); in the test with MDA-MB-231 it was 1.84 µM (inactive); with SK-MEL-5, 2.53 µM (inactive); in the test with SNB-19, 6.85 µM (inactive). The GI50 was 6.7 µM (inactive) in the test on OVCAR-5; 0.764 µM (active) in the test with CCRF-CEM; 9.23 µM (inactive) in the test with SK-MEL-2; 5.14 µM (inactive) in the test with T47D; 2.46 µM (inactive) in the test on UO-31; 7.01 µM (inactive) with SK-MEL-28. Moreover, the GI50 in the test with COLO 205 is 2.34 µM (inactive); in the test with NCI-H226, 4.34 µM (inactive); in the test with UACC-257, 3.96 µM (inactive); in the test on NCI/ADR-RES, 3.18 µM (inactive); in the test with SN12C, 2.88 µM (inactive); in the test with PC-3 it was 4.65 µM (inactive). In addition, the GI50 was 12 µM (inactive) in the test on BT-549 and 3.3 µM (inactive) in the test on SW-620.
As for `CO[C@H]1[C@@H](O)[C@@H](C)O[C@@H](O[C@H]2CC[C@@]3(C)[C@H](CC[C@@H]4[C@@H]3CC[C@]3(C)[C@@H](C5=CC(=O)OC5)CC[C@]43O)C2)[C@@H]1O` [ODOROSIDE H], the GI50 is 0.00474 µM (active) in the test with EKVX; 0.00583 µM (active) in the test with OVCAR-4; 0.00767 µM (active) in the test with MDA-N; 0.0413 µM (active) in the test with MDA-MB-231; 0.00509 µM (active) with SK-MEL-5; 0.0215 µM (active) in the test with SNB-19. Besides, the GI50 is 0.0321 µM (active) in the test on OVCAR-5; 0.00422 µM (active) with CCRF-CEM; 0.0169 µM (active) in the test with SK-MEL-2; 0.0333 µM (active) with T47D; 0.00454 µM (active) in the test with UO-31; 0.0394 µM (active) in the test with SK-MEL-28. In addition, the GI50 was 0.0366 µM (active) in the test with COLO 205; 0.0488 µM (active) in the test on NCI-H226; 0.0109 µM (active) in the test on UACC-257; 0.00548 µM (active) with NCI/ADR-RES; 0.00467 µM (active) with SN12C; 0.00426 µM (active) in the test on PC-3. For the same compound, the GI50 in the test on BT-549 was 0.00514 µM (active); in the test with SW-620 it was < 0.0025 µM (active).
With `CC12C=CC(=O)C=C1CCC1C3CCC(O)(C(=O)CO)C3(C)CC(O)C12F` (stereo not given), the GI50 in the test on EKVX is 43.5 µM (inactive); in the test with OVCAR-4, > 100 µM (inactive); in the test on MDA-N, > 100 µM (inactive); with MDA-MB-231, > 100 µM (inactive); with SK-MEL-5, > 100 µM (inactive); in the test on SNB-19, > 100 µM (inactive). The GI50 in the test with OVCAR-5 is > 76.4 µM (inactive); with CCRF-CEM, 0.536 µM (active); with SK-MEL-2, > 100 µM (inactive); in the test on T47D, > 100 µM (inactive); with UO-31, > 100 µM (inactive); in the test with SK-MEL-28 it was > 100 µM (inactive). Further, the GI50 in the test with COLO 205, in the test on NCI-H226, in the test on UACC-257, in the test with NCI/ADR-RES, in the test on SN12C and in the test with PC-3 was > 100 µM (inactive) throughout. Besides, the GI50 in the test with BT-549 was 95.3 µM (inactive); with SW-620 it was > 100 µM (inactive).
For the compound `CCCCCCCCCCCCCCCCNc1nc(=O)n(C2OC(C)C(O)C2O)cc1F` (stereo not given), the GI50 in the test with EKVX was 18.4 µM (inactive); in the test with OVCAR-4, 22.1 µM (inactive); in the test with MDA-N, 19.1 µM (inactive); in the test on MDA-MB-231 it was 20.7 µM (inactive); in the test on SK-MEL-5 it was 18.5 µM (inactive); in the test with SNB-19, 18.8 µM (inactive). Besides, the GI50 is 20.6 µM (inactive) with OVCAR-5; 16.3 µM (inactive) in the test with CCRF-CEM; 18.9 µM (inactive) in the test with SK-MEL-2; 21.1 µM (inactive) with T47D; 14 µM (inactive) with UO-31; 19.2 µM (inactive) in the test with SK-MEL-28. In addition, the GI50 in the test on COLO 205 was 24.4 µM (inactive); in the test with NCI-H226, 21 µM (inactive); in the test with UACC-257, 20.5 µM (inactive); in the test with NCI/ADR-RES, 18.9 µM (inactive); in the test with SN12C, 21.9 µM (inactive); in the test with PC-3 it was 13.2 µM (inactive). Moreover, the GI50 in the test on BT-549 was 19.7 µM (inactive); in the test on SW-620, 19.9 µM (inactive).
Consider `CCN(CC)C(=O)Cn1c(C)cc2ccccc21`, for which the GI50 in the test with EKVX, in the test with OVCAR-4, in the test with MDA-N, in the test with MDA-MB-231, in the test with SK-MEL-5 and with SNB-19 was > 100 µM (inactive) in each case. In addition, the GI50 in the test with OVCAR-5, in the test on CCRF-CEM, in the test with SK-MEL-2, in the test on T47D, in the test on UO-31 and in the test with SK-MEL-28 was > 100 µM (inactive) in each case. Further, the GI50 with COLO 205, in the test on NCI-H226, in the test with UACC-257, with NCI/ADR-RES, in the test with SN12C and with PC-3 was > 100 µM (inactive) throughout. The GI50 in the test on BT-549 and with SW-620 was > 100 µM (inactive) in each case.
Consider `CN1CC2=C(OC(N)=C(C#N)C2c2cccs2)/C(=C/c2cccs2)C1` (stereo not given), for which the GI50 in the test on EKVX was 6.01 µM (inactive); with OVCAR-4, 5.52 µM (inactive); with MDA-N it was 5.64 µM (inactive); with MDA-MB-231, > 49 µM (inactive); with SK-MEL-5, 3.41 µM (inactive); in the test with SNB-19, > 59.3 µM (inactive). The GI50 was > 84.9 µM (inactive) in the test with OVCAR-5; 5.52 µM (inactive) in the test with CCRF-CEM; > 35.1 µM (inactive) in the test on SK-MEL-2; 0.202 µM (active) with T47D; 34 µM (inactive) with UO-31; > 57.9 µM (inactive) in the test on SK-MEL-28. The GI50 was 9.08 µM (inactive) in the test with COLO 205; > 74.1 µM (inactive) in the test on NCI-H226; 9.53 µM (inactive) in the test on UACC-257; 3.41 µM (inactive) in the test on NCI/ADR-RES; 34.8 µM (inactive) in the test on SN12C; 5.31 µM (inactive) in the test with PC-3. The GI50 in the test on BT-549 was 5.62 µM (inactive); with SW-620 it was 42.8 µM (inactive).
